# Measured values as given in patent publication US9533952B2, “N-prop-2-ynyl carboxamide derivatives and their use as TRPA1 antagonists” (Orion Corporation, priority 2012, dated 2017).
# Target: TRPA1 (Homo sapiens, UniProt O75762)
# Test: Determination of TRPA1 activity in vitro (TRPA1 antagonism in vitro)
# Type: cell-based
# Conditions: procedure of Wei et al., Anesthesiology 111 (2009) 147-154
# TRPA1, sequence (O75762 whole entry): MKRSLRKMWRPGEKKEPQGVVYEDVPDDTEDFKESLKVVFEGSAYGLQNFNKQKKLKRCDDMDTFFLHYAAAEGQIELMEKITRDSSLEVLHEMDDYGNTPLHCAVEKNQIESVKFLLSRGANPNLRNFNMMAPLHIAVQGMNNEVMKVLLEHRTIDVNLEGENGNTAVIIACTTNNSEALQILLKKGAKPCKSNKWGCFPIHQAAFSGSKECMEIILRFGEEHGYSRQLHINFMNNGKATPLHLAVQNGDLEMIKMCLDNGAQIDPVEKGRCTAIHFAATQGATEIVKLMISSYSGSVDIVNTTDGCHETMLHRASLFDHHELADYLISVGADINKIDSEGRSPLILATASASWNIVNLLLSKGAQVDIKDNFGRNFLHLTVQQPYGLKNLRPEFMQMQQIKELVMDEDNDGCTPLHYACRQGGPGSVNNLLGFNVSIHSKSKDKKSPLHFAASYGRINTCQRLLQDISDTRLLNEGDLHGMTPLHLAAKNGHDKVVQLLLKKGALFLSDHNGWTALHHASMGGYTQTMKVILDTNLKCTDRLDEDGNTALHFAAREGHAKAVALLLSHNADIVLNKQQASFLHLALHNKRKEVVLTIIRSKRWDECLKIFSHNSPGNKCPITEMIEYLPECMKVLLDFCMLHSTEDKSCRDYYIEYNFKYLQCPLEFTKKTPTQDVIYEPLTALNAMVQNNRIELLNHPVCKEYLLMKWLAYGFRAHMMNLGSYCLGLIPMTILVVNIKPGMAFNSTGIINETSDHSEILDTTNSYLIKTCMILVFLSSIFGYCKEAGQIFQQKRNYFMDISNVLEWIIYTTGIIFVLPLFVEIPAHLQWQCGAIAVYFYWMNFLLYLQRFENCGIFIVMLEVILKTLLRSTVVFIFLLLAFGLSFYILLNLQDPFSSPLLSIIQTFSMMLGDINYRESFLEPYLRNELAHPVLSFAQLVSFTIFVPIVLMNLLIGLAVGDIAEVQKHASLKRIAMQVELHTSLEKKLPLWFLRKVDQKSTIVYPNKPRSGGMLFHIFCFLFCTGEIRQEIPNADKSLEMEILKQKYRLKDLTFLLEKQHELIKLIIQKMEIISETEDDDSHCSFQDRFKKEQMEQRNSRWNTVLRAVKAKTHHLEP
row,IC50 [µM],Compound
1,5.4,"C#CC(C)(C)NC(=O)c1cc(F)c(F)cc1NC(C)(C)C [Example 82, 2-(tert-Butylamino)-4,5-difluoro-N-(2-methylbut-3-yn-2-yl)benzamide]"
2,2.9,"C#CC(C)(C)NC(=O)c1ccc(F)cc1NC(C)C [Example 83, 4-Fluoro-2-(isopropylamino)-N-(2-methylbut-3-yn-2-yl)benzamide]"
3,7.5,"C#CC(C)(C)NC(=O)c1ccc(C(F)(F)F)cc1NC [Example 84, 2-(Methylamino)-N-(2-methylbut-3-yn-2-yl)-4-(trifluoromethyl)-benzamide]"
4,13.2,"C#CC(C)(C)NC(=O)c1cc(OC(F)(F)F)ccc1NC [Example 85, 2-(Methylamino)-N-(2-methylbut-3-yn-2-yl)-5-(trifluoromethoxy)-benzamide]"
5,2.2,"C#CC(C)(C)NC(=O)c1cc(F)c(F)cc1NC1CC1 [Example 86, 2-(Cyclopropylamino)-4,5-difluoro-N-(2-methylbut-3-yn-2-yl) benzamide]"
6,0.6,"C#CC(C)(NC(=O)c1cc(F)c(F)cc1NCC)C(C)C (centres unmarked) [Example 87, N-(3,4-Dimethylpent-1-yn-3-yl)-2-(ethylamino)-4,5-difluorobenzamide]"
7,14.2,"C#CC(C)(C)NC(=O)c1cc(OC)c(OC)cc1NCC(C)C [Example 88, 2-(Isobutylamino)-4,5-dimethoxy-N-(2-methylbut-3-yn-2-yl)benzamide]"
8,8.6,"C#CC(C)(C)NC(=O)c1ccc(C(F)(F)F)cc1NCCOC [Example 89, 2-(2-Methoxyethylamino)-N-(2-methylbut-3-yn-2-yl)-4-(trifluoro-methyl)benzamide]"
9,4.8,"C#CC(C)(C)NC(=O)c1ccc(F)cc1NC1CC1 [Example 90, 2-(Cyclopropylamino)-4-fluoro-N-(2-methylbut-3-yn-2-yl)benzamide]"
10,7,"C#CC(C)(C)NC(=O)c1cc(F)ccc1NC1CC1 [Example 91, 2-(Cyclopropylamino)-5-fluoro-N-(2-methylbut-3-yn-2-yl)benzamide]"
11,12.3,"C#CC(C)(C)NC(=O)c1cc(F)ccc1NC(C)C [Example 92, 5-Fluoro-2-(isopropylamino)-N-(2-methylbut-3-yn-2-yl)benzamide]"
12,11.4,"C#CC(C)(C)NC(=O)c1cc(C)ccc1NC(C)C [Example 93, 2-(Isopropylamino)-5-methyl-N-(2-methylbut-3-yn-2-yl)benzamide]"
13,1.8,"C#CC(C)(C)NC(=O)c1ccc(C)cc1NCCC(F)(F)F [Example 94, 4-Methyl-N-(2-methylbut-3-yn-2-yl)-2-(3,3,3-trifluoropropylamino)-benzamide]"
14,5.6,"C#CC(C)(C)NC(=O)c1cc(Cl)cc(F)c1NC(C)C [Example 95, 5-Chloro-3-fluoro-2-(isopropylamino)-N-(2-methylbut-3-yn-2-yl)-benzamide]"
15,3.7,"C#CC(C)(C)NC(=O)c1cc(OC)ccc1NCCCC(F)(F)F [Example 96, 5-Methoxy-N-(2-methylbut-3-yn-2-yl)-2-(4,4,4-trifluorobutylamino)-benzamide]"
16,14,"C#CC(C)(C)NC(=O)c1cccnc1NCc1cccc(OC)c1 [Example 97, 2-(3-Methoxybenzylamino)-N-(2-methylbut-3-yn-2-yl)nicotinamide]"
17,5.3,"C#CC(C)(C)NC(=O)c1cccnc1NCc1cccc(F)c1 [Example 98, 2-(3-Fluorobenzylamino)-N-(2-methylbut-3-yn-2-yl)nicotinamide]"
18,6.6,"C#CC(C)(C)NC(=O)c1cccnc1NCCCC [Example 100, 2-(Butylamino)-N-(2-methylbut-3-yn-2-yl)nicotinamide]"

row,IC50 [µM],Compound
1,11.9,"C#CC(C)(C)NC(=O)c1cccnc1NC(C)(C)C [Example 101, 2-(tert-Butylamino)-N-(2-methylbut-3-yn-2-yl)nicotinamide]"
2,0.3,"C#CC(C)(CC)NC(=O)c1cc(F)ccc1NCCCC (centres unmarked) [Example 102, 2-(Butylamino)-5-fluoro-N-(3-methylpent-1-yn-3-yl)benzamide]"
3,1.8,"C#CC(CC)(CC)NC(=O)c1cc(F)ccc1NCC [Example 103, 2-(Ethylamino)-N-(3-ethylpent-1-yn-3-yl)-5-fluorobenzamide]"
4,1.7,"C#CC(C)(C)NC(=O)c1cc(F)ccc1NCCC(F)(F)F [Example 104, 5-Fluoro-N-(2-methylbut-3-yn-2-yl)-2-(3,3,3-trifluoropropylamino)benzamide]"
5,0.7,C#CC(C)(C)NC(=O)c1ccc(C(F)(F)F)nc1NCC(C)C [Example 105]
6,1.3,"C#CC(C)(C)NC(=O)c1ccc(C(F)(F)F)nc1NC(C)C [Example 106, 2-(Isopropylamino)-N-(2-methylbut-3-yn-2-yl)-6-(trifluoromethyl)-nicotinamide]"
7,3.7,"C#CC(C)(C)NC(=O)c1ccc(C(F)(F)F)nc1NCC [Example 107, 2-(Ethylamino)-N-(2-methylbut-3-yn-2-yl)-6-(trifluoromethyl)-nicotinamide]"
8,5,"C#CC(C)(C)NC(=O)c1cnc(C(F)(F)F)nc1NC(C)(C)C [Example 108, 4-(tert-Butylamino)-N-(2-methylbut-3-yn-2-yl)-2-(trifluoromethyl)pyrimidine-5-carboxamide]"
9,5.1,"C#CC(C)(C)NC(=O)c1cnc(C(F)(F)F)nc1NC(C)(C)CC [Example 109, N-(2-Methylbut-3-yn-2-yl)-4-(tert-pentylamino)-2-(trifluoromethyl)-pyrimidine-5-carboxamide]"
10,12,"C#CC(C)(C)NC(=O)c1cnc(C(F)(F)F)nc1NC(C)C [Example 110, 4-(Isopropylamino)-N-(2-methylbut-3-yn-2-yl)-2-(trifluoromethyl)-pyrimidine-5-carboxamide]"
11,2.4,"C#CC(C)(C)NC(=O)c1ccc(C(F)(F)F)nc1NC(C)(C)C [Example 111, 2-(tert-Butylamino)-N-(2-methylbut-3-yn-2-yl)-6-(trifluoromethyl)-nicotinamide]"
12,3.4,"C#CC(C)(C)NC(=O)c1ccc(Cl)nc1NC(C)C [Example 112, 6-Chloro-2-(isopropylamino)-N-(2-methylbut-3-yn-2-yl)nicotinamide]"
13,7.2,"C#CC(C)(C)NC(=O)c1ccc(Cl)nc1NCC [Example 113, 6-Chloro-2-(ethylamino)-N-(2-methylbut-3-yn-2-yl)nicotinamide]"
14,4.3,"C#CC(C)(C)NC(=O)c1cc(F)c(N2CCOCC2)nc1NC(C)C [Example 114, 5-Fluoro-2-(isopropylamino)-N-(2-methylbut-3-yn-2-yl)-6-morpholinonicotinamide]"
15,4.8,"C#CC(C)(C)NC(=O)c1ccc(C(F)(F)F)nc1NC1CCOCC1 [Example 115, N-(2-Methylbut-3-yn-2-yl)-2-(tetrahydro-2H-pyran-4-ylamino)-6-(trifluoromethyl)nicotinamide]"
16,1.6,"C#CC(C)(C)NC(=O)c1ccc(C(F)(F)F)nc1NCC1CCOCC1 [Example 116, N-(2-Methylbut-3-yn-2-yl)-2-((tetrahydro-2H-pyran-4-yl)methyl-amino)-6-(trifluoromethyl)nicotinamide]"
17,2.3,"C#CC(C)(C)NC(=O)c1ccc(C(F)(F)F)nc1NC1CC1 [Example 117, 2-(Cyclopropylamino)-N-(2-methylbut-3-yn-2-yl)-6-(trifluoromethyl)-nicotinamide]"
